Reference: PubChem BioAssay (NCI)
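48-hour exposure; five concentrations; linearly interpolated endpoints. TGI is the concentration that stops growth completely.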

How the values were obtained:
Assay in all cases: NCI anticancer screen, dose series, 48 h
786-0 renal = tested on: 786-0 renal
A498 renal = tested on: A498 renal
A549 NSCLC = tested on: A549 NSCLC
ACHN renal = tested on: ACHN renal
CAKI-1 renal = tested on: CAKI-1 renal
CCRF-CEM leukemia = tested on: CCRF-CEM leukemia
DLD-1 colon = tested on: DLD-1 colon
DMS 114 small cell lung = tested on: DMS 114 small cell lung
DMS 273 small cell lung = tested on: DMS 273 small cell lung
EKVX NSCLC = tested on: EKVX NSCLC
HCC-2998 colon = tested on: HCC-2998 colon
HCT-116 colon = tested on: HCT-116 colon
HCT-15 colon = tested on: HCT-15 colon
HL-60(TB) leukemia = tested on: HL-60(TB) leukemia
HOP-18 NSCLC = tested on: HOP-18 NSCLC
HOP-62 NSCLC = tested on: HOP-62 NSCLC
HOP-92 NSCLC = tested on: HOP-92 NSCLC
HT29 colon = tested on: HT29 colon
IGROV1 ovarian = tested on: IGROV1 ovarian
K-562 leukemia = tested on: K-562 leukemia
KM12 colon = tested on: KM12 colon
KM20L2 colon = tested on: KM20L2 colon
LOX IMVI melanoma = tested on: LOX IMVI melanoma
LXFL 529 NSCLC = tested on: LXFL 529 NSCLC
M14 melanoma = tested on: M14 melanoma
M19-MEL melanoma = tested on: M19-MEL melanoma
MALME-3M melanoma = tested on: MALME-3M melanoma
MOLT-4 leukemia = tested on: MOLT-4 leukemia
NCI-H23 lung = tested on: NCI-H23 lung
NCI-H460 lung = tested on: NCI-H460 lung
NCI-H522 lung = tested on: NCI-H522 lung
OVCAR-4 ovarian = tested on: OVCAR-4 ovarian
OVCAR-5 ovarian = tested on: OVCAR-5 ovarian
OVCAR-8 ovarian = tested on: OVCAR-8 ovarian
RPMI-8226 leukemia = tested on: RPMI-8226 leukemia
RXF 393 renal = tested on: RXF 393 renal
RXF-631 renal = tested on: RXF-631 renal
SF-268 CNS = tested on: SF-268 CNS
SF-295 CNS = tested on: SF-295 CNS
SF-539 CNS = tested on: SF-539 CNS
SK-MEL-2 melanoma = tested on: SK-MEL-2 melanoma
SK-MEL-28 melanoma = tested on: SK-MEL-28 melanoma
SK-MEL-5 melanoma = tested on: SK-MEL-5 melanoma
SK-OV-3 ovarian = tested on: SK-OV-3 ovarian
SN12C renal = tested on: SN12C renal
SNB-19 CNS = tested on: SNB-19 CNS
SNB-75 CNS = tested on: SNB-75 CNS
SNB-78 CNS = tested on: SNB-78 CNS
SR leukemia = tested on: SR leukemia
SW-620 colon = tested on: SW-620 colon
TK-10 renal = tested on: TK-10 renal
U251 CNS = tested on: U251 CNS
UACC-257 melanoma = tested on: UACC-257 melanoma
UACC-62 melanoma = tested on: UACC-62 melanoma
UO-31 renal = tested on: UO-31 renal
XF 498 CNS = tested on: XF 498 CNS
COLO 205 colon = tested on: COLO 205 colon
NCI-H226 lung = tested on: NCI-H226 lung
OVCAR-3 ovarian = tested on: OVCAR-3 ovarian

In the case of `CCCCCCCCCCNC(=S)OCCCC`, the TGI (786-0 renal) was 76.3 µM, the TGI (A498 renal) was 62.6 µM and the TGI (A549 NSCLC) was 73.6 µM. It also gave a TGI (ACHN renal) of 69.3 µM, a TGI (CAKI-1 renal) of 61.1 µM and a TGI (CCRF-CEM leukemia) of 37.6 µM. It also gave a TGI (DLD-1 colon) of 85.4 µM, a TGI (DMS 114 small cell lung) of 45.8 µM and a TGI (DMS 273 small cell lung) of 42.3 µM. It also gave a TGI (EKVX NSCLC) of 65.8 µM, a TGI (HCC-2998 colon) of 57 µM and a TGI (HCT-116 colon) of 34.7 µM. It also gave a TGI (HCT-15 colon) of 39.7 µM, a TGI (HL-60(TB) leukemia) of 31.2 µM and a TGI (HOP-18 NSCLC) of 81.5 µM. The TGI (HOP-62 NSCLC) was 68.7 µM, the TGI (HOP-92 NSCLC) was 41.1 µM and the TGI (HT29 colon) was 37.4 µM. The TGI (IGROV1 ovarian) was 87.3 µM, the TGI (K-562 leukemia) was 36.6 µM and the TGI (KM12 colon) was 29.9 µM. It also gave a TGI (KM20L2 colon) of 37.7 µM, a TGI (LOX IMVI melanoma) of 29.8 µM and a TGI (LXFL 529 NSCLC) of 55.6 µM. The TGI (M14 melanoma) was 52.4 µM, the TGI (M19-MEL melanoma) was greater than 100 µM and the TGI (MALME-3M melanoma) was 54.8 µM. The TGI (MOLT-4 leukemia) was 32.6 µM, the TGI (NCI-H23 lung) was 53.9 µM and the TGI (NCI-H460 lung) was 43.5 µM. It also gave a TGI (NCI-H522 lung) of 42.4 µM, a TGI (OVCAR-4 ovarian) greater than 100 µM and a TGI (OVCAR-5 ovarian) of 29 µM. For the same compound, the TGI (OVCAR-8 ovarian) was greater than 100 µM, the TGI (RPMI-8226 leukemia) was 34.9 µM and the TGI (RXF 393 renal) was 59.5 µM. The TGI (RXF-631 renal) was 87.1 µM, the TGI (SF-268 CNS) was 58.7 µM and the TGI (SF-295 CNS) was greater than 100 µM. It also gave a TGI (SF-539 CNS) of 48.3 µM, a TGI (SK-MEL-2 melanoma) of 27.7 µM and a TGI (SK-MEL-28 melanoma) of 72.2 µM. The TGI (SK-MEL-5 melanoma) was 33.3 µM, the TGI (SK-OV-3 ovarian) was 77.3 µM and the TGI (SN12C renal) was 38.2 µM. The TGI (SNB-19 CNS) was greater than 100 µM, the TGI (SNB-75 CNS) was 86.7 µM and the TGI (SNB-78 CNS) was 88.4 µM. It also gave a TGI (SR leukemia) of 38 µM, a TGI (SW-620 colon) of 35.2 µM and a TGI (TK-10 renal) of 45 µM. For the same compound, the TGI (U251 CNS) was 37.5 µM, the TGI (UACC-257 melanoma) was 49.3 µM and the TGI (UACC-62 melanoma) was 53.1 µM. It also gave a TGI (UO-31 renal) of 60.3 µM and a TGI (XF 498 CNS) of 39.8 µM.

Compound `COc1cc2c3c(c1OCc1ccccc1)NCCC3NCC2` (stereo not given) has a TGI (786-0 renal) greater than 100 µM, a TGI (A498 renal) greater than 100 µM and a TGI (A549 NSCLC) greater than 100 µM. It also gave a TGI (CAKI-1 renal) greater than 100 µM, a TGI (CCRF-CEM leukemia) greater than 100 µM and a TGI (COLO 205 colon) greater than 100 µM. For the same compound, the TGI (DLD-1 colon) was greater than 100 µM, the TGI (DMS 114 small cell lung) was greater than 100 µM and the TGI (DMS 273 small cell lung) was greater than 100 µM. For the same compound, the TGI (EKVX NSCLC) was greater than 100 µM, the TGI (HCC-2998 colon) was greater than 100 µM and the TGI (HCT-116 colon) was greater than 100 µM. It also gave a TGI (HCT-15 colon) greater than 100 µM, a TGI (HL-60(TB) leukemia) greater than 100 µM and a TGI (HOP-62 NSCLC) greater than 100 µM. For the same compound, the TGI (HOP-92 NSCLC) was greater than 100 µM, the TGI (HT29 colon) was greater than 100 µM and the TGI (IGROV1 ovarian) was greater than 100 µM. The TGI (K-562 leukemia) was greater than 100 µM, the TGI (KM12 colon) was greater than 100 µM and the TGI (KM20L2 colon) was greater than 100 µM. The TGI (LOX IMVI melanoma) was greater than 100 µM, the TGI (LXFL 529 NSCLC) was greater than 100 µM and the TGI (M14 melanoma) was greater than 100 µM. For the same compound, the TGI (M19-MEL melanoma) was greater than 100 µM, the TGI (MALME-3M melanoma) was greater than 100 µM and the TGI (MOLT-4 leukemia) was greater than 100 µM. For the same compound, the TGI (NCI-H226 lung) was greater than 100 µM, the TGI (NCI-H23 lung) was greater than 100 µM and the TGI (NCI-H460 lung) was greater than 100 µM. It also gave a TGI (NCI-H522 lung) greater than 100 µM, a TGI (OVCAR-3 ovarian) greater than 100 µM and a TGI (OVCAR-4 ovarian) greater than 100 µM. The TGI (OVCAR-5 ovarian) was greater than 100 µM, the TGI (OVCAR-8 ovarian) was greater than 100 µM and the TGI (RPMI-8226 leukemia) was greater than 100 µM. For the same compound, the TGI (RXF 393 renal) was greater than 100 µM, the TGI (RXF-631 renal) was greater than 100 µM and the TGI (SF-268 CNS) was greater than 100 µM. It also gave a TGI (SF-295 CNS) greater than 100 µM, a TGI (SF-539 CNS) greater than 100 µM and a TGI (SK-MEL-5 melanoma) greater than 100 µM. For the same compound, the TGI (SN12C renal) was greater than 100 µM, the TGI (SNB-19 CNS) was greater than 100 µM and the TGI (SNB-75 CNS) was greater than 100 µM. The TGI (SNB-78 CNS) was greater than 100 µM, the TGI (SR leukemia) was greater than 100 µM and the TGI (SW-620 colon) was greater than 100 µM. For the same compound, the TGI (TK-10 renal) was greater than 100 µM, the TGI (U251 CNS) was greater than 100 µM and the TGI (UACC-257 melanoma) was greater than 100 µM. For the same compound, the TGI (UACC-62 melanoma) was greater than 100 µM, the TGI (UO-31 renal) was greater than 100 µM and the TGI (XF 498 CNS) was greater than 100 µM.
